Measurements: PMC8390552, “Helix 12 stabilization contributes to basal transcriptional activity of PXR” (The Journal of Biological Chemistry, 2021)
Residue numbers refer to the chain shown, from its start.

Key:
[1] = molecular target: T1, WT PXR (Homo sapiens, UniProt O75469); test: Reporter gene assay (p3A4-pGL3, CYP3A4 promoter) in COS-1 cells expressing WT PXR; conditions: 1 μM ligand, without PGC1α (Fig. S7)
T1 sequence (O75469 1-434): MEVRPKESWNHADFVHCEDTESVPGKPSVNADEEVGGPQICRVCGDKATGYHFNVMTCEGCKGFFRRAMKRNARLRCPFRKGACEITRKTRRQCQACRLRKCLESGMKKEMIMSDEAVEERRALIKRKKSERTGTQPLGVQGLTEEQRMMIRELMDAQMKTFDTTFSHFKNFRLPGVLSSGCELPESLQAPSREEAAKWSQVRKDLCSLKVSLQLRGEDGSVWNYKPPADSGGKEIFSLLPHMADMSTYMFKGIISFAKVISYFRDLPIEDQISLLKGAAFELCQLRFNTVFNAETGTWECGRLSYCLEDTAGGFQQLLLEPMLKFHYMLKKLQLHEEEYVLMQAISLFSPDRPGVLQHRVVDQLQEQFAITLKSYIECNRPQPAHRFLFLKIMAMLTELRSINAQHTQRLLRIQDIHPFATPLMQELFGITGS
Procedure: (§1) COS-1 cells were cultured in Dulbecco's Modified Eagle medium (DMEM, Fujifilm Wako Pure Chemical) supplemented with 10% fetal bovine serum (FBS, GE Healthcare), MEM nonessential amino acids, and antibiotic-antimycotic (Thermo Fisher Scientific). Twenty-four hours after seeding, the culture medium was replaced with prewarmed DMEM without FBS, and plasmids were transfected with Lipofectamine 3000 (Thermo Fisher Scientific) according to the manufacturer’s instructions.
(§2) Firefly luciferase luminescence was normalized to Renilla luciferase luminescence.

[2] = molecular target: T2, PXR-F420A (Homo sapiens, UniProt O75469, F420A); test: Reporter gene assay (p3A4-pGL3, CYP3A4 promoter) in COS-1 cells expressing PXR-F420A; conditions: 1 μM ligand, without PGC1α (Fig. S7)
T2 sequence (O75469 1-434 F420A): T1 sequence (O75469 1-434) with F420A
Procedure: as §1, §2

Compound: Clc1ccccc1C(c1ccccc1)(c1ccccc1)n1ccnc1 [clotrimazole, Clotrimazole]
- Induction of reporter activity, WT PXR [1]: weak induction
- Induction of reporter activity, PXR-F420A [2]: but not for PXR-F420A
